In patent publication US4250329A, “Carbonylation process” (priority 1979, dated 1981):
Where “and” joins values, the source holds several entries; their conditions need not be identical. Equal values may be shown once. Read-outs that look alike come from different tables or passages of the source.

Legend:
[1] = Hydroformylation of propylene; details: 133 °C
Description: [table 17: the next 25 blocks are its lines as printed, fixed-width]

[2] = Experimental: This conversion is run at elevated pressures, preferably from 1,500 to 3,000 psi. Reaction temperatures will range from 50° C. to 200° C., with a range of 100° C. to 150° C. preferred. Ratio of H2 to CO used will vary with reaction conditions; preferably a 1 to 1 ratio is maintained. The catalyst concentration will range from 0.01 to 20% based on the weight feed, with 0.05 to 10% preferred.
30 ml. of hexene-1, 20 ml. of benzene, and 0.3 gm. […] The bomb was heated to 140° C. and held until the reaction was complete.

[3] = Carbonylation of methanol to methyl acetate; details: 175° C.
[4] = Carbonylation of methanol to methyl acetate; parameters: methyl acetate (drawing 15) produced: unit not given here; details: for methyl acetate (drawing 15) produced / CH3 OH consumed: 20 hour; for methyl acetate (drawing 17): the values are: methyl acetate volume produced; for % Conversion (Table II) / % Selectivity (Table II; additional product was dimethyl ether): 1000 psi
Experimental: (THF)4 Mg[Co(CO)3 P(C4 H9)3 ]2 +CH3 I catalyst system
Reaction conditions: 175° C., 1000 psi

[5] = 1500 psi 1:1 H2:CO, 140° C., 0.3 gm catalyst
[6] = CH3I 1.6 mmole, 18 hr, 175° C., 1000 psi CO, no reaction occurs
[7] = CH3I 4.0 mmole, 18 hr, 175° C., 1000 psi CO
[8] = CH3I 6.0 mmole, 18 hr, 175° C., 1000 psi CO
[9] = CH3I 8.0 mmole, 3.25 hr, 175° C., 4000 psig CO
[10] = CH3I 8.0 mmole, 18 hr, 175° C., 1000 psi CO
[11] = CH3I 12.0 mmole, 18 hr, 175° C., 1000 psi CO
[12] = CH3I 16.0 mmole, 18 hr, 175° C., 1000 psi CO
[13] = CH3I 48.0 mmole, 17 hr, 175° C., 1000 psi CO
[14] = cocatalyst 8.0 mmole, 18 hr, 1.0 mmole catalyst, 175° C., 1000 psi CO
[15] = cocatalyst 8.0 mmole, 19 hr, 1.0 mmole catalyst, 175° C., 1000 psi CO
[16] = catalyst 1.0 mmole, CH3I 8.0 mmole, 21 hour, 175° C.
[17] = cocatalyst 8.0 mmole, 90 hr, 1.0 mmole catalyst, 175° C., 1000 psi CO
[18] = catalyst 2.0 mmole, CH3I 8.0 mmole, 67 hour, 175° C.

[C-]#[O+].[Cl-].[Rh].c1ccc(P(c2ccccc2)c2ccccc2)cc1.c1ccc(P(c2ccccc2)c2ccccc2)cc1 [((C6 H5)3 P)2 Rh(CO)Cl]
t1/2 ([1]; 1n 2/k): 9.32 min | k (pseudo 1st order reaction rate constant) ([1]; 1000 psig CO/H2 50/50): 0.0744 min⁻¹ | n-C4 H8 O (percent straight chain isomer) ([1]; 1000 psig CO/H2 50/50, benzene, 0.5 mmoles catalyst based on Rh): 56%

tetrakis tetrahydrofuran adduct of a magnesium-dicobalt hexacarbonyl bismethyldiphenylphosphine complex [(C4 H8 O)4 Mg[Co(CO)3 PCH3 (C6 H5)2]2]
hexene-1 converted to C7 aldehydes and C7 alcohols [2, 5]: 99% | reacted product that was an aldehyde [2, 5]: 87% | conversion of 1-hexene to heptaldehydes ([2]; elevated pressures): > 99% | selectivity, 1-hexene to heptaldehydes ([2]; elevated pressures): 87%

CI [CH3 I, methyl iodide]
% Conversion to Methyl Acetate (Table IV) ([3]; CH3I 16.0 mmole, 4.25 hr, 4000 psig CO): 25% | % Conversion to Methyl Acetate (Table III) ([3]; cocatalyst 8.0 mmole, 3.25 hr, 1.0 mmole catalyst, 4000 psi CO): 29% | % Selectivity to Methyl Acetate (Table III) ([3]; cocatalyst 16.0 mmole, 4.25 hr, 1.0 mmole catalyst, 4000 psi CO): 74% | % Conversion to Methyl Acetate (Table IV) [4, 6]: 0.0% | % Selectivity to Methyl Acetate (Table IV) [4, 6]: 0.0% | methyl acetate (drawing 15) produced ([4]; CH3I 1.6 mmole, 1.0 mmole catalyst, 1000 psi CO, 175° C.): 0.5 | CH3 OH consumed ([4]; CH3I 1.6 mmole, 1000 psi CO, 175° C.): 1.2 mL | % Conversion to Methyl Acetate (Table IV) [4, 7]: 22% | % Selectivity to Methyl Acetate (Table IV) [4, 7]: 100% | % Conversion to Methyl Acetate (Table IV) [4, 8]: 24% | % Selectivity to Methyl Acetate (Table IV) [4, 8]: 100% | % Conversion to Methyl Acetate (Table IV) [4, 9]: 29% | % Selectivity to Methyl Acetate (Table IV) [4, 9]: 97% | % Conversion to Methyl Acetate (Table IV) [4, 10]: 24% | % Selectivity to Methyl Acetate (Table IV) [4, 10]: 85% | methyl acetate (drawing 15) produced ([4]; CH3I 8.0 mmole, 1.0 mmole catalyst, 1000 psi CO, 175° C.): 22.4 | CH3 OH consumed ([4]; CH3I 8.0 mmole, 1000 psi CO, 175° C.): 30.0 mL | % Conversion to Methyl Acetate (Table IV) [4, 11]: 5.4% | % Selectivity to Methyl Acetate (Table IV) [4, 11]: 15% | % Selectivity to Methyl Acetate (Table IV) ([4]; CH3I 16.0 mmole, 4.25 hr, 175° C., 4000 psig CO): 74% | % Conversion to Methyl Acetate (Table IV) [4, 12]: 4.5% | % Selectivity to Methyl Acetate (Table IV) [4, 12]: 12% | methyl acetate (drawing 15) produced ([4]; CH3I 16.0 mmole, 1.0 mmole catalyst, 1000 psi CO, 175° C.): 4.5 | CH3 OH consumed ([4]; CH3I 16.0 mmole, 1000 psi CO, 175° C., CH3OH is dehydrated to CH3OCH3): 45.0 mL | % Conversion to Methyl Acetate (Table IV) [4, 13]: 0.0% | % Selectivity to Methyl Acetate (Table IV) [4, 13]: 0.0% | conversion to CH3 OCH3 [4, 13]: 100% | methyl acetate (drawing 15) produced ([4]; CH3I 48.0 mmole, 1.0 mmole catalyst, 1000 psi CO, 175° C.): 1.2 | CH3 OH consumed ([4]; CH3I 48.0 mmole, 1000 psi CO, 175° C., CH3OH is dehydrated to CH3OCH3): 90. ml | % Selectivity to Methyl Acetate (Table III) ([4]; cocatalyst 8.0 mmole, 3.25 hr, 1.0 mmole catalyst, 175° C., 4000 psi CO): 97% | % Conversion to Methyl Acetate (Table III) [4, 14]: 24% | % Selectivity to Methyl Acetate (Table III) [4, 14]: 85% | % Conversion to Methyl Acetate (Table III) ([4]; cocatalyst 16.0 mmole, 4.25 hr, 1.0 mmole catalyst, 175° C., 4000 psi CO): 25% | methyl acetate (drawing 17) [4]: 19.8 mL and 29.6 mL and 21.4 mL

CCI [CH3 CH2 I]
% Conversion to Methyl Acetate (Table III) [4, 15]: 20% | % Selectivity to Methyl Acetate (Table III) [4, 15]: 85% | methyl acetate (drawing 17) [4]: 17.5 mL

[C-]#[O+].[C-]#[O+].[C-]#[O+].[C-]#[O+].[C-]#[O+].[C-]#[O+].[C-]#[O+].[C-]#[O+].[Co].[Co] [Co2 (CO)8]
% Conversion (Table II) [4, 16]: 3.5% | % Selectivity (Table II; additional product was dimethyl ether) [4, 16]: 6.4%

Ic1ccccc1 [C6 H5 I]
% Conversion to Methyl Acetate (Table III) [4, 17]: 25% | % Selectivity to Methyl Acetate (Table III) [4, 17]: 52% | methyl acetate (drawing 17) ([4]; cocatalyst 8.0 mmole, 1000 psi CO, 175° C., 90 hours): 22.3 mL

[I-].[Li+] [LiI]
% Conversion to Methyl Acetate (Table III) [4]: 0.6% | % Selectivity to Methyl Acetate (Table III) [4]: 100% | methyl acetate (drawing 17) [4]: 1 mL

CC(=O)[CH-]C(C)=O.CC(=O)[CH-]C(C)=O.CC(=O)[CH-]C(C)=O.[Co+3] [Co(C5 H7 O2)3]
% Conversion (Table II) [4, 18]: 16% | % Selectivity (Table II; additional product was dimethyl ether) [4, 18]: 23%

I [HI]
% Conversion to Methyl Acetate (Table III) [4]: 8% | % Selectivity to Methyl Acetate (Table III) [4]: 47% | methyl acetate (drawing 17) [4]: 6.6 mL

CBr [CH3 Br]
activity as cocatalyst [4]: inactive
